Columns and labels:
[1] = molecular target: recombinant human NF-kappaB-inducing kinase (NIK/MAP3K14) (Homo sapiens (Human), UniProt Q99558); assay: Inhibition of auto-phosphorylation of recombinant human NIK/MAP3K14 (AlphaScreen); format: biochemical; details: NIK auto-phosphorylation, 5 μM ATP, 1 nM NIK, 2 h at 25° C.; average of values
Procedure, shortened: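 AlphaScreen read-out (anti-phospho-IKK Ser176/180 antibody, Protein A acceptor and glutathione donor beads) of NIK auto-phosphorylation. Reaction: 1 nM enzyme, 5 μM ATP, Tris pH 7.5 buffer with Mg2+ and vanadate, 2 h at 25° C., final DMSO 0.7%. IC50 came from a sigmoidal curve fit.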

[2] = tested on: p-IKKα levels in L363 (NIK translocated multiple myeloma) cells; assay: Effect of compounds on p-IKKα levels in L363 cells (AlphaLISA SureFire Ultra); format: cell-based, human; details: Homo sapiens, L-363, 6 h, BAFF stimulated, MG132, 6 h, average of values, read-out: Assay 2 IC50
Procedure, shortened: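 Inhibition of p-IKKα (Ser176/180) read by AlphaLISA after 6 h, 37 °C compound exposure (11-point 1:3 series, 0.3% DMSO) of L363 cells pre-incubated overnight ± 250 ng/ml BAFF and plated ± BAFF ± 10 μM MG132. Normalised to BAFF/MG132/DMSO and unstimulated controls; IC50 by sigmoidal fitting, duplicates.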

Chain of recombinant human NF-kappaB-inducing kinase (NIK/MAP3K14) (Q99558 whole entry): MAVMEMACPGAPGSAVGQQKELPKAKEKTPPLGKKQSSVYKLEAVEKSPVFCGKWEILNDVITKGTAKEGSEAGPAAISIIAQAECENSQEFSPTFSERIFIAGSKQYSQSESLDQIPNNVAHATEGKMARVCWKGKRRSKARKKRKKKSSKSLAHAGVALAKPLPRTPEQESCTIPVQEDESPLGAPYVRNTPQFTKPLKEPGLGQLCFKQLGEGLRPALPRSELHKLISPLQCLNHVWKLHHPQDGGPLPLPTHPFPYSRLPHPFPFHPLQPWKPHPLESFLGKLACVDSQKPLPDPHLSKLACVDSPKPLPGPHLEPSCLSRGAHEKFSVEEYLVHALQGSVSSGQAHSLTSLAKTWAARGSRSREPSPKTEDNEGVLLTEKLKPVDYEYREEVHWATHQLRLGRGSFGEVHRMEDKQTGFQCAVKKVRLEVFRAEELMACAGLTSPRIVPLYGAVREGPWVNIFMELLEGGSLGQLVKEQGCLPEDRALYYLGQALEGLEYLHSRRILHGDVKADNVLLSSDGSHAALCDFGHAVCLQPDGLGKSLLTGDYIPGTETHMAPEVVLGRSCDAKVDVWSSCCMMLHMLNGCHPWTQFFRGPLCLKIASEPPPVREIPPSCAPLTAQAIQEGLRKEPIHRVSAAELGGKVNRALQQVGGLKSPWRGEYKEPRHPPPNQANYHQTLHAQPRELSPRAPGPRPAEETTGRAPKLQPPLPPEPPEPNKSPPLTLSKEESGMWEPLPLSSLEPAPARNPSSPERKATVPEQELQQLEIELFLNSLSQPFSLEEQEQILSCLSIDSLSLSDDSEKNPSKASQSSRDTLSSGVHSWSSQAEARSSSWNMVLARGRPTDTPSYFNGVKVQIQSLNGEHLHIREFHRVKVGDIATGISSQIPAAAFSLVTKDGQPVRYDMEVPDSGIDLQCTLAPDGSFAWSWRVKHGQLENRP

Row | Structure (SMILES) | IC50 [1] [nM] | IC50 [2] [nM]
1 | Cc1c(C#C[C@]2(O)CCN(C)C2=O)cccc1-c1nc2c(N)ncnc2s1 [Example 154, (R)-3-((3-(7-Aminothiazolo[5,4-d]pyrimidin-2-yl)-2-methylphenyl)ethynyl)-3-hydroxy-1-methylpyrrolidin-2-one] | 620 | > 5000
2 | CN1CC[C@@](O)(C#Cc2cccc(N3CCc4ccnc(N)c4C3)c2)C1=O [Example 20, (R)-3-((3-(8-Amino-3,4-dihydro-2,7-naphthyridin-2(1H)-yl)phenyl)ethynyl)-3-hydroxy-1-methylpyrrolidin-2-one] | 1.2 | 55
3 | Cc1nc(N)c2nc(-c3cccc(C#C[C@](C)(O)c4cnc(C)s4)c3)ccc2n1 [Example 157, (S)-4-(3-(4-Amino-2-methylpyrido[3,2-d]pyrimidin-6-yl)phenyl)-2-(2-methylthiazol-5-yl)but-3-yn-2-ol] | 3790 | > 5000
4 | CN1CC[C@@](O)(C#Cc2cccc(-c3ccc4ncnc(NCC#N)c4n3)c2)C1=O [Example 240, (R)-2-((6-(3-((3-Hydroxy-1-methyl-2-oxopyrrolidin-3-yl)ethynyl)phenyl)pyrido[3,2-d]pyrimidin-4-yl)amino)acetonitrile] | 21 | 570
5 | CN1CC[C@@](O)(C#Cc2cccc(-c3ccc4ncnc(C(F)(F)F)c4n3)c2)C1=O [Example 278, (R)-3-Hydroxy-1-methyl-3-((3-(4-(trifluoromethyl)pyrido[3,2-d]pyrimidin-6-yl)phenyl)ethynyl)pyrrolidin-2-one] | 170 | > 5000
6 | Cc1nc(N)c2nc(-c3cccc(C#C[C@]4(O)C[C@H](C)N(C)C4=O)c3)ccc2n1 [Example 268, (3R,5S)-3-((3-(4-Amino-2-methylpyrido[3,2-d]pyrimidin-6-yl)phenyl)ethynyl)-3-hydroxy-1,5-dimethylpyrrolidin-2-one] | 65 | 585
7 | Nc1nccc2cnc(-c3cccc(C#CC4(O)CCN(CC(F)(F)F)C4=O)c3)nc12 (stereo in doubt) [Example 73, (S)-3-[2-[3-(8-Aminopyrido[3,4-d]pyrimidin-2-yl)phenyl]ethynyl]-3-hydroxy-1-(2,2,2-trifluoroethyl)pyrrolidin-2-one] | 1730 | > 5000
8 | [2H]c1nc(N)c2nc(-c3cccc(C#CC4(O)CCN(CC=C)C4=O)c3)ccc2n1 (racemic) [Example 196, racemic-1-Allyl-3-((3-(4-aminopyrido[3,2-d]pyrimidin-6-yl-2-d)phenyl)ethynyl)-3-hydroxypyrrolidin-2-one] | 4.4 | 250
9 | CN1CC[C@@](O)(C#Cc2cccc(-c3ccc4ncnc(N5CC(C)(C)C5)c4n3)c2)C1=O [Example 226, (R)-3-((3-(4-(3,3-Dimethylazetidin-1-yl)pyrido[3,2-d]pyrimidin-6-yl)phenyl)ethynyl)-3-hydroxy-1-methylpyrrolidin-2-one] | 42 | 1400
10 | Cc1nc(N)c2nc(-c3cccc(C#C[C@@]4(O)C(=O)N(C)C[C@@H]4C)c3)ccc2n1 (stereo in doubt) [Example 291, (3R,4S*)-3-((3-(4-Amino-2-methylpyrido[3,2-d]pyrimidin-6-yl)phenyl)ethynyl)-3-hydroxy-1,4-dimethylpyrrolidin-2-one] | 54 | 1390
11 | CN1CC[C@@](O)(C#Cc2ccc(OC(F)(F)F)c(-c3ccc4ncnc(N)c4n3)c2)C1=O [Example 271, (R)-3-((3-(4-Aminopyrido[3,2-d]pyrimidin-6-yl)-4-(trifluoromethoxy)phenyl)ethynyl)-3-hydroxy-1-methylpyrrolidin-2-one] | 4.2 | 44
12 | CN1CC[C@@](O)(C#Cc2cccc(-c3ccc4ncnc(NC5CCC5)c4n3)c2)C1=O [Example 236, (R)-3-((3-(4-(Cyclobutylamino)pyrido[3,2-d]pyrimidin-6-yl)phenyl)ethynyl)-3-hydroxy-1-methylpyrrolidin-2-one] | 57 | 1370
13 | CNC(=O)C1CN(c2ncnc3ccc(-c4cccc(C#C[C@]5(O)CCN(C)C5=O)c4)nc23)C1 [Example 246, (R)-1-(6-(3-((3-Hydroxy-1-methyl-2-oxopyrrolidin-3-yl)ethynyl)phenyl)pyrido[3,2-d]pyrimidin-4-yl)-N-methylazetidine-3-carboxamide] | 23 | 3790
14 | Cc1nc(N)c2nc(-c3cccc(C#C[C@]4(O)C(=O)N(C)C[C@@H]4C)c3)ccc2n1 (stereo in doubt) [Example 293, (3S,4S*)-3-((3-(4-Amino-2-methylpyrido[3,2-d]pyrimidin-6-yl)phenyl)ethynyl)-3-hydroxy-1,4-dimethylpyrrolidin-2-one] | > 5000 | > 5000
15 | COc1ccc(C#C[C@]2(O)CCN(C)C2=O)cc1-c1ncc2ncnc(N)c2n1 [Example 177, (R)-3-((3-(8-Aminopyrimido[5,4-d]pyrimidin-2-yl)-4-methoxyphenyl)ethynyl)-3-hydroxy-1-methylpyrrolidin-2-one] | 5.1 | 66

Compounds with a lower IC50 [1], results first:

Row | IC50 [1] [nM] | IC50 [2] [nM] | Structure (SMILES)
16 | ≤ 0.5 | 7.7 | Cc1cnc(N)c2nc(-c3cccc(C#C[C@]4(O)CCn5ccnc54)c3)ncc12 [Example 86, (R)-7-[2-[3-(8-Amino-5-methyl-pyrido[3,4-d]pyrimidin-2-yl)phenyl]ethynyl]-5,6-dihydropyrrolo[1,2-a]imidazol-7-ol]
17 | ≤ 0.5 | 5.8 | CN1CC[C@@](O)(C#Cc2cccc(-c3ncc4c(Cl)cnc(N)c4n3)c2)C1=O [Example 103, (R)-3-((3-(8-Amino-5-chloropyrido[3,4-d]pyrimidin-2-yl)phenyl)ethynyl)-3-hydroxy-1-methylpyrrolidin-2-one]
18 | 0.4 | 5.1 | CN1CC[C@@](O)(C#Cc2cccc(-c3cc(Br)c4ncnc(N)c4n3)c2)C1=O [Example 253, (R)-3-((3-(4-Amino-8-bromopyrido[3,2-d]pyrimidin-6-yl)phenyl)ethynyl)-3-hydroxy-1-methylpyrrolidin-2-one]
19 | ≤ 0.5 | 6.2 | CN1CC[C@@](O)(C#Cc2cccc(-c3ncc4c(-c5cnn(CCCC#N)c5)cnc(N)c4n3)c2)C1=O [Example 140, (R)-4-[4-[8-Amino-2-[3-[2-(3-hydroxy-1-methyl-2-oxo-pyrrolidin-3-yl)ethynyl]phenyl]pyrido[3,4-d]pyrimidin-5-yl]pyrazol-1-yl]butanenitrile]
20 | ≤ 0.5 | 150 | CN1CC[C@@](O)(C#Cc2cccc(-c3ncc4c(-c5cnn(CCN)c5)cnc(N)c4n3)c2)C1=O [Example 134, (R)-3-[2-[3-[8-Amino-5-[1-(2-aminoethyl)pyrazol-4-yl]pyrido[3,4-d]pyrimidin-2-yl]phenyl]ethynyl]-3-hydroxy-1-methyl-pyrrolidin-2-one]
21 | ≤ 0.5 | 1.5 | CN1CC[C@@](O)(C#Cc2cccc(-c3ccc4c(C#N)cnc(N)c4n3)c2)C1=O [Example 118, (R)-8-Amino-2-[3-[2-(3-hydroxy-1-methyl-2-oxo-pyrrolidin-3-yl)ethynyl]phenyl]-1,7-naphthyridine-5-carbonitrile]
22 | ≤ 0.5 | 12 | C[C@@](O)(C#Cc1cccc(-c2ncc3ccnc(N)c3n2)c1)c1nccs1 [Example 32, (R)-4-[3-(8-Aminopyrido[3,4-d]pyrimidin-2-yl)phenyl]-2-thiazol-2-yl-but-3-yn-2-ol]
23 | ≤ 0.5 | 4.5 | CN1CC[C@@](O)(C#Cc2cccc(-c3cc(C4CC4)c4ncnc(N)c4n3)c2)C1=O [Example 302, (R)-3-((3-(4-Amino-8-cyclopropylpyrido[3,2-d]pyrimidin-6-yl)phenyl)ethynyl)-3-hydroxy-1-methylpyrrolidin-2-one]
24 | 0.8 | 22 | CN1CC[C@@](O)(C#Cc2cccc(-c3ccc4nc(CF)nc(N)c4n3)c2)C1=O [Example 170, (R)-3-((3-(4-Amino-2-(fluoromethyl)pyrido[3,2-d]pyrimidin-6-yl)phenyl)ethynyl)-3-hydroxy-1-methylpyrrolidin-2-one]
25 | ≤ 0.5 | 17 | [2H]c1nc(N)c2nc(-c3cc(C#C[C@]4(O)CCN(C)C4=O)ccc3C)ccc2n1 [Example 149, (R)-3-((3-(4-Aminopyrido[3,2-d]pyrimidin-6-yl-2-d)-4-methylphenyl)ethynyl)-3-hydroxy-1-methylpyrrolidin-2-one]
26 | 0.9 | 3.1 | [2H]C([2H])([2H])c1cc(-c2cccc(C#C[C@]3(O)CCN(C)C3=O)c2)nc2c(N)ncnc12 [Example 286, (R)-3-((3-(4-Amino-8-(methyl-da)pyrido[3,2-d]pyrimidin-6-yl)phenyl)ethynyl)-3-hydroxy-1-methylpyrrolidin-2-one]
27 | ≤ 0.5 | 2.3 | CN1CC[C@@](O)(C#Cc2cccc(-c3ncc4c(-c5cnn(C)c5)cnc(N)c4n3)c2)C1=O [Example 122, (R)-3-[2-[3-[8-Amino-5-(1-methylpyrazol-4-yl)pyrido[3,4-d]pyrimidin-2-yl]phenyl]ethynyl]-3-hydroxy-1-methyl-pyrrolidin-2-one]
28 | ≤ 0.5 | 9.9 | CN1CCC(O)(C#Cc2cccc(-c3ccc4ccnc(N)c4n3)c2)C1=O (stereo in doubt) [Example 19, (R)-3-[2-[3-(8-Amino-1,7-naphthyridin-2-yl)phenyl]ethynyl]-3-hydroxy-1-methyl-pyrrolidin-2-one]

— patent US20240199605A1, “SMALL MOLECULAR INHIBITORS OF NF-kB INDUCING KINASE” (Janssen Pharmaceutica NV, priority 2019, published 2024)
